Assay results: BindingDB's records for patent US20230339981 (Gilead Sciences, 2023)

Biological target: GTPase KRas [G12D] (Homo sapiens, UniProt P01116, G12D)
Assay: Biochemical Assay
Procedure: Compounds were tested for binding to GDP-loaded KRAS G12D in a 384-well assay format using a TR-FRET probe displacement assay in buffer consisting of 50 mM Hepes (pH 7.4), 150 mM NaCl, 5 mM MgCl2 and 0.005% Tween-20. […] Compounds were serially diluted (1:3) in DMSO. The LabCyte ECHO Acoustic dispenser system was used to pre-spot the assay plates (384-well Non-Binding Surface plates, Corning, Catalog #3824) with 50 nL of compound. The compounds were pre-incubated with 5 μL of 2× final enzyme concentration for 30 minutes before adding 5 μL of 2× final concentration of Eu-streptavidin and TR-FRET probe (10 μL final reaction volume). The plates were incubated at room temperature for 2 hours before measuring TR-FRET ratio on the Envision plate reader. IC50 values were defined as the compound concentration that causes a 50% decrease in TR-FRET ratio and were calculated using a sigmoidal dose-response model to generate curve fits.

Sequence of GTPase KRas [G12D] (P01116 whole entry G12D): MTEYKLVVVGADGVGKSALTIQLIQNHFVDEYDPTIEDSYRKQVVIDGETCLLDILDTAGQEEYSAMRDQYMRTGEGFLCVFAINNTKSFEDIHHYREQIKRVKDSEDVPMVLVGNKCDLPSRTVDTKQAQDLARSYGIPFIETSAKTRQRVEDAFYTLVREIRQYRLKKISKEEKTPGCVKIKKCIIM

SMILES: C#Cc1c(F)ccc2cc(O)cc(-c3nc4c5c(nc(OC[Si](C)(C)CN6CCOCC6)nc5c3F)N3C[C@H]5CC[C@H](N5)[C@H]3CO4)c12 [US20230339981, Example 29]
- IC50: 560 nM

SMILES: Fc1ccc2cccc(-c3nc4c5c(nc(OC[C@@]67CCCN6C[C@H](F)C7)nc5c3F)N3C[C@H]5CC[C@H](N5)[C@H]3CC4)c2c1OC(F)(F)F [US20230339981, Example 65]
- IC50: 89 nM

SMILES: C#Cc1c(F)ccc2cc(O)cc(-c3nc4c5c(nc(OC[C@@]67CCCN6C[C@H](F)C7)nc5c3F)N3C[C@H]5CC[C@H](N5)[C@@H]3CC4)c12 [US20230339981, Example 133]
- IC50: 0.1 nM

SMILES: C#Cc1c(F)ccc2cccc(-c3nc4c5c(nc(OC[C@@]67CCCN6C[C@@H](OC(F)(F)F)C7)nc5c3F)N3C[C@H]5CC[C@H](N5)[C@H]3CC4)c12 [US20230339981, Example 140]
- IC50: 3.7 nM

SMILES: C#Cc1c(F)ccc2cc(O)cc(-c3nc4c5c(nc(OCC6(CN7CCC8(CC7)CC8)CC6)nc5c3F)N3C[C@H]5CC[C@H](N5)[C@H]3CC4)c12 [US20230339981, Example 177]
- IC50: 0.1 nM
